#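 Briefly, cells in 96-well plates were exposed to five compound concentrations for 48 h, and endpoints were estimated by linear interpolation. GI50 is the concentration that inhibits growth by half.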 Active and inactive are the calls of the source. Rule as the data show it: active = GI50 up to about 1.1 µM and inactive = higher.
# How the values were obtained:
# Test in all cases: NCI anticancer screen, dose series, 48 h
# CCRF-CEM = test system: CCRF-CEM
# 786-0 = test system: 786-0
# HT-29 = test system: HT-29
# U-251 = test system: U-251
# MDA-MB-231 = test system: MDA-MB-231
# BT-549 = test system: BT-549
# SK-MEL-28 = test system: SK-MEL-28
# K562 = test system: K562
# SW-620 = test system: SW-620
# SK-OV-3 = test system: SK-OV-3
# RXF 393 = test system: RXF 393
# UO-31 = test system: UO-31
# HCT-116 = test system: HCT-116
# HCT-15 = test system: HCT-15
# T47D = test system: T47D
# NCI-H460 = test system: NCI-H460
Compound,GI50 (CCRF-CEM),GI50 (786-0),GI50 (HT-29),GI50 (U-251),GI50 (MDA-MB-231),GI50 (BT-549),GI50 (SK-MEL-28),GI50 (K562),GI50 (SW-620),GI50 (SK-OV-3),GI50 (RXF 393),GI50 (UO-31),GI50 (HCT-116),GI50 (HCT-15) [µM],GI50 (T47D),GI50 (NCI-H460)
O=C1c2cc([N+](=O)[O-])ccc2-c2ccc3c4ccc5c6c(ccc(c7ccc1c2c73)c64)C(=O)c1cc([N+](=O)[O-])ccc1-5,> 100 µM (inactive),> 100 µM (inactive),> 100 µM (inactive),> 100 µM (inactive),> 100 µM (inactive),> 100 µM (inactive),> 100 µM (inactive),> 100 µM (inactive),> 100 µM (inactive),> 100 µM (inactive),> 100 µM (inactive),> 100 µM (inactive),> 100 µM (inactive),> 100,> 100 µM (inactive),–
NC(=O)c1csc(-c2ccc(CO)o2)n1,–,> 100 µM (inactive),> 100 µM (inactive),> 100 µM (inactive),> 100 µM (inactive),> 100 µM (inactive),> 100 µM (inactive),> 100 µM (inactive),> 100 µM (inactive),> 100 µM (inactive),> 100 µM (inactive),> 100 µM (inactive),> 100 µM (inactive),> 100,> 100 µM (inactive),> 100 µM (inactive)
Cc1cc(OCC(=O)O)c(Cl)cc1Cl,–,> 100 µM (inactive),> 100 µM (inactive),> 100 µM (inactive),> 100 µM (inactive),> 100 µM (inactive),> 100 µM (inactive),> 100 µM (inactive),> 100 µM (inactive),–,> 100 µM (inactive),> 100 µM (inactive),> 100 µM (inactive),> 100,> 100 µM (inactive),> 100 µM (inactive)
Cc1cc([N+](=O)[O-])c(C)c(Br)c1C,–,> 100 µM (inactive),> 100 µM (inactive),> 100 µM (inactive),> 100 µM (inactive),> 100 µM (inactive),> 100 µM (inactive),> 100 µM (inactive),> 100 µM (inactive),> 100 µM (inactive),60.5 µM (inactive),> 100 µM (inactive),> 100 µM (inactive),> 100,71 µM (inactive),> 100 µM (inactive)
C/C(=N\Nc1nc2ccccc2s1)c1ccc2ccccc2n1,25.7 µM (inactive),> 100 µM (inactive),85.9 µM (inactive),> 100 µM (inactive),46 µM (inactive),> 100 µM (inactive),> 100 µM (inactive),–,> 100 µM (inactive),> 100 µM (inactive),26.4 µM (inactive),53.7 µM (inactive),> 100 µM (inactive),> 100,5.36 µM (inactive),> 100 µM (inactive)
N#CC1=C2Sc3ccccc3N2[C@H](c2ccccc2)[C@H]2COC(=O)[C@@H]12,7.45 µM (inactive),> 100 µM (inactive),–,45.2 µM (inactive),> 100 µM (inactive),27.9 µM (inactive),> 100 µM (inactive),–,35.2 µM (inactive),> 100 µM (inactive),70.3 µM (inactive),> 100 µM (inactive),> 100 µM (inactive),> 100,35.6 µM (inactive),–
CCOC(=O)c1c(OCC)[nH]c(=O)c(C(c2ccc(F)cc2)c2c(O)c(C(=O)OCC)c(OCC)[nH]c2=O)c1O,33.1 µM (inactive),16.4 µM (inactive),16.1 µM (inactive),15.2 µM (inactive),12.6 µM (inactive),9.71 µM (inactive),11.9 µM (inactive),16.5 µM (inactive),17.3 µM (inactive),–,4.28 µM (inactive),12.8 µM (inactive),25.7 µM (inactive),18.4,4.44 µM (inactive),16.4 µM (inactive)
CCCCCCCC(CC(=O)NC(CO)C(=O)NC(CO)CC(C)C)OC(=O)CC(CCCCCCC)OC(=O)CC(CCCCCCC)OC1OC(C)C(O)C(OC2OC(C)C(O)C(OC(C)=O)C2O)C1O (stereo not drawn),5.2 µM (inactive),13.4 µM (inactive),7.8 µM (inactive),4.2 µM (inactive),11.3 µM (inactive),6.47 µM (inactive),12.2 µM (inactive),12.4 µM (inactive),14.9 µM (inactive),17 µM (inactive),8.34 µM (inactive),14.9 µM (inactive),13.1 µM (inactive),–,12.9 µM (inactive),13.3 µM (inactive)
O=C(N[C@@H](c1ccccc1)[C@@H](O)C(=O)OCc1ccc([N+](=O)[O-])cc1)c1ccccc1,67.6 µM (inactive),> 100 µM (inactive),> 100 µM (inactive),> 100 µM (inactive),> 100 µM (inactive),> 100 µM (inactive),–,51.3 µM (inactive),> 100 µM (inactive),> 100 µM (inactive),> 100 µM (inactive),65.5 µM (inactive),> 100 µM (inactive),> 100,> 100 µM (inactive),> 100 µM (inactive)
O=C(O)CC(NC(=O)/C(=C/c1ccccc1O)NC(=O)c1ccccc1)C(=O)O (stereo not drawn),33.9 µM (inactive),> 100 µM (inactive),80.7 µM (inactive),54.7 µM (inactive),> 100 µM (inactive),57 µM (inactive),> 100 µM (inactive),74.1 µM (inactive),> 100 µM (inactive),> 100 µM (inactive),–,43.4 µM (inactive),> 100 µM (inactive),59.4,79.4 µM (inactive),–
Cn1c(=O)c2c3ccccc3n(C)c2n(C)c1=O,> 100 µM (inactive),> 100 µM (inactive),> 100 µM (inactive),> 100 µM (inactive),> 100 µM (inactive),> 100 µM (inactive),–,> 100 µM (inactive),> 100 µM (inactive),22.3 µM (inactive),> 100 µM (inactive),> 100 µM (inactive),> 100 µM (inactive),> 100,> 100 µM (inactive),–
COc1cc(/C=C/C2=NN(c3cccc(S(=O)(=O)O)c3)C3(C2)SCC(=O)N3c2nc3ccccc3s2)cc(OC)c1OC (stereo not drawn),28.8 µM (inactive),18.4 µM (inactive),90.8 µM (inactive),33 µM (inactive),43.3 µM (inactive),42 µM (inactive),> 100 µM (inactive),41.1 µM (inactive),61.7 µM (inactive),–,56.4 µM (inactive),36.1 µM (inactive),50.5 µM (inactive),51.9,15 µM (inactive),37.5 µM (inactive)
CCOC(=O)Nn1cnnc1Cc1ccccc1,> 100 µM (inactive),> 100 µM (inactive),> 100 µM (inactive),> 100 µM (inactive),> 100 µM (inactive),> 100 µM (inactive),–,> 100 µM (inactive),> 100 µM (inactive),> 100 µM (inactive),–,> 100 µM (inactive),> 100 µM (inactive),> 100,> 100 µM (inactive),> 100 µM (inactive)
O=c1c(-c2ccccc2Cl)coc2cc(F)ccc12,24.3 µM (inactive),30.4 µM (inactive),22.5 µM (inactive),10.2 µM (inactive),19.4 µM (inactive),14.9 µM (inactive),63.5 µM (inactive),–,30.6 µM (inactive),45.2 µM (inactive),22.1 µM (inactive),20.4 µM (inactive),31.8 µM (inactive),31.8,45.1 µM (inactive),37.6 µM (inactive)
CCC(C)(C)C1CCC2c3c([nH]c4ccccc34)C3C(=O)N(c4ccc(OC)cc4)C(=O)C3C2C1 (stereo not drawn),–,10.6 µM (inactive),11.2 µM (inactive),11.5 µM (inactive),13 µM (inactive),16.1 µM (inactive),25.9 µM (inactive),5.16 µM (inactive),17.4 µM (inactive),31.9 µM (inactive),20.4 µM (inactive),24.4 µM (inactive),9.08 µM (inactive),27.5,6.55 µM (inactive),7.4 µM (inactive)
CCOP(=O)(OCC)/C(C#N)=C/c1cccn1C(C)C,–,> 100 µM (inactive),> 100 µM (inactive),> 100 µM (inactive),> 100 µM (inactive),> 100 µM (inactive),> 100 µM (inactive),> 100 µM (inactive),> 100 µM (inactive),> 100 µM (inactive),> 100 µM (inactive),> 100 µM (inactive),> 100 µM (inactive),> 100,> 100 µM (inactive),> 100 µM (inactive)
c1ccc(CN2C3C4N(Cc5ccccc5)C2C2N(Cc5ccccc5)C(C(N2Cc2ccccc2)N4Cc2ccccc2)N3Cc2ccccc2)cc1,40.1 µM (inactive),> 100 µM (inactive),> 100 µM (inactive),> 100 µM (inactive),> 100 µM (inactive),> 100 µM (inactive),> 100 µM (inactive),> 100 µM (inactive),> 100 µM (inactive),> 100 µM (inactive),> 100 µM (inactive),–,> 100 µM (inactive),> 100,> 100 µM (inactive),–
COc1cc2cc(C(=O)N3CC(CCl)c4c3cc([N+](=O)[O-])c3ccccc43)[nH]c2c(OC)c1OC (stereo not drawn),11.6 µM (inactive),29.3 µM (inactive),40.6 µM (inactive),25.8 µM (inactive),> 100 µM (inactive),> 100 µM (inactive),> 100 µM (inactive),15.3 µM (inactive),> 100 µM (inactive),> 48.5 µM (inactive),> 89.3 µM (inactive),> 100 µM (inactive),27 µM (inactive),–,> 66.8 µM (inactive),4.68 µM (inactive)

# From ChEMBL document CHEMBL1201862, “PubChem BioAssay data set” (2004)
